Assay results reported in patent US11845741B2, “Pilocarpine ionic liquids for treatment of glaucoma” (VIRGINIA COMMONWEALTH UNIVERSITY INTELLECTUAL PROPERTY …, priority 2020, dated 2023).
Entries after “also recorded” stand apart in the source; their conditions may differ. Where a name gives a salt, the structure may show the parent alone. Each block holds one compound with its values, some of them ahead of it.

Experiments:
[1] = Stability test: pH of aqueous solutions over 24 h; format: physicochemical; settings: for pH of freshly prepared solution: 0 h
Procedure: (§1) Stability test. Fresh water solutions of Pilo, PiloHCl, and [Pilo-OEG]Cl (5 mM) were prepared and their pH at 0, 0.75, 4, 8, and 24 h was measured with a pH meter ([…]). The samples at 0 and 24 h were further analyzed with LC-MS/MS using a Surveyor Plus HPLC System and triple stage quadrupole (TSQ) Quantum Ultra Mass Spectrometer (Thermo Fisher Scientific, USA) equipped with an auto-sampler and electrospray ionization (ESI) source. Separation was carried out on an Hypersil Gold column (150 mm×2.1 mm, […], Thermo) maintained at 25° C. The mobile phase consisted of 0.1% (v/v) formic acid water phase (A) and methanol phase (B). The gradient elution program was as follows: 95% of A at 0-5 min, and back to 95% of A at 23.1 min, re-conditioning of the column for 8 min. The flow rate was 0.2 mL/min A capillary temperature of 350° C., spray voltage of 4500 V, sheath gas of 30 arb, and auxiliary gas of 10 arb were maintained as the optimal instrument conditions. Unit resolution was used for Q1 (FWHM 0.7). Nitrogen was used as both sheath gas and auxiliary gas.

[2] = Stability test: LC-MS/MS analysis of aqueous solutions at 0 and 24 h; format: physicochemical; settings: water solution, 5 mM
Procedure: as §1

[3] = Cytotoxicity assessment, WST-1 assay; format: cell-based, human; settings: human, HCE-2 human corneal epithelial cells; HCE-2 cells, 24 h incubation, WST-1
Procedure: (§2) Cytotoxicity assessment. HCE-2 human corneal epithelial cells were seeded in a 96-well plate at a density of 1×10^4 cell/well. After attachment, the cells were incubated with various concentrations of Pilo, PiloHCl and [Pilo-OEG]Cl for 24 h and cell viability was determined by using WST-1 assay. The medium for HCE-2 (ATCC CRL-11135, epithelial Adenovirus 12-SV40 hybrid transformed) was Keratinocyte-serum free medium supplemented with 0.05 mg/mL of bovine pituitary extract (BPE), 5 ng/mL of epidermal growth factor (EGF), 500 ng/mL of hydrocortisone and 0.005 mg/mL of insulin. The cytotoxicity of Pilo and [Pilo-OEG]Cl to NIH3T3 fibroblast cells was also tested.

[4] = tested on: HCE-2 human corneal epithelial cells; assay: Cytotoxicity assessment, WST-1 assay; format: cell-based; settings: HCE-2 cells, 24 h, 1 mM to 50 mM
Procedure: as §2

[5] = Ex vivo corneal permeation, Franz diffusion cell; format: in vitro ADME; settings: rabbit cornea; for amount permeated through the cornea within 4 h: 200 μL of 27 mM in donor chamber
Procedure: Ex vivo corneal permeation studies. Corneas were extracted from fresh rabbit eyes and mounted immediately in a Franz diffusion cell system with the epithelial surface facing the donor chamber. In each test, Pilo, PiloHCl, or [Pilo-OEG]Cl (200 μL, 27 mM) was loaded to the donor chamber. The receiver chamber was filled with 5 mL of PBS. At pre-determined time points up to 4 h, an aliquot of 1 mL from the receiver chamber was collected via syringe and analyzed with UV-Vis spectrophotometer (U-3010, Hitachi). Fresh PBS (1 mL) was added to the receiver chamber following each sampling. All the experiments were conducted in triplicate. The permeability coefficient, P, was then determined based on the following equation: [formula] where dQ/dt is the steady-state slope of a cumulative flux curve (in this study, the data in 1 h is selected for dQ/dt calculation), C is drug concentration in the donor chamber, and A is the effective cross-sectional area (0.629 cm^2) available for diffusion.^22

[6] = tested on: intraocular pressure (IOP); assay: In vivo IOP-lowering efficacy assessment; parameters: species or system normotensive adult Brown Norway female rats; settings: for IOP reduction after second dose: second topical dose applied 4 hours after the first; for average IOP reduction after first dose: topical 2×5 μL, 82 mM pilocarpine equivalent, 45 min post-administration, n=4; for time of highest IOP reduction post-administration: topical instillation
Procedure: In vivo efficacy assessment. Normotensive adult Brown Norway female rats (Charles River Laboratories), 8 months old, were used in this work. The rats were given free access to food and water, 12 hours light and dark cycle in a temperature-controlled room (18-24° C.). The procedures conducted were approval by Virginia Commonwealth University IACUC. Rats were randomly grouped to two groups of four (n=4). The right eye of each rat was instilled with PiloHCl or [Pilo-OEG]Cl PBS solution (2×5 μL, 82 mM pilocarpine equivalent), one dose at 8:00 am and the second dose at 12:00 pm. The IOPs of both eyes were measured at 8:00 am (before dosing), 8:45 am, 12:00 pm (before the second dosing), 12:45 pm, and 16:00 pm using Icare TONOLAB tonometer TV02.

[7] = literature value; cited from earlier work

- dissociation constant (pKa) ([1]; calculated/estimated from pH at 0 h, 5 mM in water, hydrochloride): 8.34
- pH of freshly prepared solution ([1]; water solution, 5 mM, hydrochloride): 5.3
- pH stability of aqueous solution within 24 h ([1]; water solution, 5 mM, 24 h): remain relatively stable
- degradation products formed in solution (LC-MS) ([2]; hydrochloride): Isopilocarpine also formed
- amount permeated through the cornea within 4 h ([5]; 4 h, hydrochloride): 8.1±1.8%
- permeability coefficient ([5]; dQ/dt from data in 1 h, hydrochloride): 1.5 ×10⁻⁶ cm/s
SMILES: CC[C@@H]1C(=O)OC[C@@H]1Cc1cncn1C [PiloHCl, pilocarpine hydrochloride]
- IC50 at 24 h [3]: 25 mM
- cytotoxicity / cytocompatibility ([4]; hydrochloride): strong dose-dependent cytotoxicity
- IOP reduction after second dose [6]: ~1 mmHg
- average IOP reduction after first dose [6]: 1.25 mmHg
- time of highest IOP reduction post-administration [6]: 45 min

- pH of freshly prepared solution ([1]; water solution, 5 mM): 7.3
- pH stability of aqueous solution within 24 h ([1]; water solution, 5 mM, 24 h): remain relatively stable
- permeability coefficient, fold higher than Pilo [5]: 1 fold
- permeability coefficient, fold higher than PiloHCl [5]: 8 fold
- amount permeated through the cornea within 4 h ([5]; 4 h): 51.6±8.1%
- amount permeated, fold higher than PiloHCl ([5]; 4 h): 5 fold
- Papp at 1 h, 27 mM ([5]; rabbit, dQ/dt from data in 1 h, read-out: permeability coefficient): 13 ×10⁻⁶ cm/s
SMILES: CC[C@@H]1C(=O)OC[C@@H]1Cc1c[n+](CCOCCOCCO)cn1C.[Cl-] [[Pilo-OEG]Cl]
- degradation products formed in solution (LC-MS) [2]: neither isopilocarpine or pilocarpine and isopilocarpine acids formed
- cytotoxicity / cytocompatibility [4]: did not show apparent toxicity; also recorded: cytocompatible
- IOP reduction, fold versus PiloHCl ([6]; first dose, statistical significance not established): 2 fold
- IOP reduction after second dose [6]: 2.625 mmHg
- average IOP reduction after first dose [6]: 2.75 mmHg
- time of highest IOP reduction post-administration [6]: 45 min

- pH of freshly prepared solution ([1]; water solution, 5 mM): 9.2
- pH of solution at 8 h ([1]; water solution, 5 mM, 8 h): 8.7
- pH of solution at 24 h ([1]; water solution, 5 mM, 24 h): 8.2
- pKa ([1]; water solution, calculated/estimated from pH at 0 h, 5 mM in water, read-out: dissociation constant (pKa)): 7.28
- amount permeated through the cornea within 4 h ([5]; 4 h): 27.8±14.7%
- permeability coefficient ([5]; dQ/dt from data in 1 h): 6.6 ×10⁻⁶ cm/s
SMILES: CC[C@@H]1C(=O)OC[C@@H]1Cc1cncn1C [Pilo, Pilocarpine]
- degradation products formed in solution (LC-MS) [2]: isopilocarpine formed (eluted at 2.02 min, m/z=209.06) and further hydrolyzed into acids
- cytotoxicity / cytocompatibility [4]: cytocompatible
- pKa reported in the Merck Index [7]: 7.15
